This note sets out measurements from US12209096B2, “Compounds and compositions for inducing chondrogenesis” (NOVARTIS AG, priority 2017, dated 2025).

For one data set, the system named is NHACs. In words: calcium flux assay. As to conditions: for Emax: read-out: (A) % Efficacy. Format: cell-based, human. Put shortly: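 FLIPR fluorescence (ex 470–495 nm, em 515–575 nm) was read before and after compound dispense at the indicated dose. Chondrocytes (NHACs), 2000 cells/well, had been dye-loaded 24 h after plating with Calcium 5 in HBSS/HEPES plus 5 mM probenecid, 1 h, room temperature.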
(A change in cytosolic calcium serves as a functional read-out for many receptors and channels.)

For data set [1], the system named is human chondrogenic progenitor cell (CPCs). The data set is described as follows: Collagen type II assay (chondrogenic differentiation). It counts as cell-based. Conditions: 432 h, hCPCs, 18 days; for Emax: read-out: (B) % Efficacy; for EC50: read-out: (B) EC50. As to the method:
To initiate chondrogenesis in primary CPCs, 8000 cells were plated/well in a Costar 96 well plate in MSCGM. After 24 hours the MSCGM was removed and replaced with DMEM containing 1% FBS. The test compound was then added to each well at the indicated dose. The cultures were grown at 37° C. for 18 days. A media supplement of an additional 50 μl of DMEM containing 1% FBS was given 10 days after chondrogenic induction.
To detect the presence of Collagen type II, hCPCs were fixed with 10% formalin for 20 minutes, permeablized with PBS containing 0.1% triton X-100, 0.2 mg/ml of Collagenase 2 for 10 minutes, blocked with PBS containing 5% BSA for 1 hr at room temperature, followed by incubation with primary antibody (anti-type II collagen antibody) in PBS containing 1% BSA overnight at 4° C. Cells were washed 3 times with PBS and incubated with fluorophore-conjugated secondary antibody and Hoechst dye for 1 hour at room temperature, followed by washing with PBS for 3 times.
The total intensity of staining was imaged by fluoresecent microscopy and/or quantified by high content imagining with the ImageXpress Micro (Molecular Devices, Sunnyvale, CA). Data analyses were performed with the customized multiwavelength cell-scoring application.

Data set [2] concerns normal human articular chondrocytes (NHACs). In words: alkaline phosphatase assay in NHAC. Conditions: 10 days; for Emax: read-out: (C) % Efficacy; for IC50: read-out: (C) IC50. It counts as cell-based. The protocol: To initiate differentiation in NHACs, 16,000 cells were plated/well in Costar 96 well plate in CGM media (Lonza). After 24 hours the MSCGM was removed and replaced with DMEM containing 1% FBS. The test compound was then added to each well at the indicated dose. The cultures were grown at 37° C. for 10 days.
To detect the presence of hypertrophic cells, NHACs were fixed with 10% formalin and Hoeschst dye for 20 minutes, rinsed in PBS, then stained with Fast Blue RR Salt with Naphthol AS-MX Phosphate Alkaline Solution.
The total intensity of staining was imaged by fluoresecent microscopy, using the 651 wavelength, and/or quantified by high content imagining with the ImageXpress Micro (Molecular Devices, Sunnyvale, CA). Data analyses were performed with the customized multiwavelength cell-scoring application.

For another data set, the system named is C3H10T1/2 cell line. In words: alkaline phosphatase assay in C3H10T1/2. Format: cell-based. Conditions: alkaline phosphatase assay in C3H10T1/2, 6 days; for Emax: read-out: (D) % Efficacy; for IC50: read-out: (D) IC50. The protocol: To initiate differentiation in C3H10T1/2, Clone 8 (ATCC cat #CCL-226), 4,000 cells were plated/well in 384 Perkin Elmer CellCarrier Ultra plate in DMEM/High glucose (HyClone cat #SH30022.01) containing 10% FBS and 1× Antibiotic/Antimycotic (HyClone cat #SV30079.01). After 24 hours the test compound was then added to each well at the indicated dose. The cultures were grown at 37° C. for 6 days.
To detect the presence of hypertrophic cells, C3H10T1/2 were fixed with 4% paraformaldehyde and Hoeschst dye for 20 minutes, rinsed in PBS, then stained with Fast Blue RR Salt with Naphthol AS-MX Phosphate Alkaline Solution.
The ALP staining was imaged by fluoresecent microscopy, using the 561 wavelength, and/or quantified by high content imagining with the ImageXpress Micro Confocal (Molecular Devices, Sunnyvale, CA). Data analyses were performed with the customized multiwavelength cell-scoring application looking at the number of ALP positive cells per well.

A short description of data set [3]: intrinsic clearance in rat liver microsomes. Format: in vitro ADME. (Microsomes from liver hold many membrane-bound enzymes, among them those of drug oxidation.)
Data set [4] can be described thus: intrinsic clearance in human liver microsomes. It counts as in vitro ADME.
Another data set deals with CYP3A4 (Homo sapiens, UniProt P08684). The data set is described as follows: CYP3A4 inhibition. It counts as in vitro ADME. Conditions: read-out: CYP3A4 inh.
Chain of CYP3A4 (P08684 whole entry): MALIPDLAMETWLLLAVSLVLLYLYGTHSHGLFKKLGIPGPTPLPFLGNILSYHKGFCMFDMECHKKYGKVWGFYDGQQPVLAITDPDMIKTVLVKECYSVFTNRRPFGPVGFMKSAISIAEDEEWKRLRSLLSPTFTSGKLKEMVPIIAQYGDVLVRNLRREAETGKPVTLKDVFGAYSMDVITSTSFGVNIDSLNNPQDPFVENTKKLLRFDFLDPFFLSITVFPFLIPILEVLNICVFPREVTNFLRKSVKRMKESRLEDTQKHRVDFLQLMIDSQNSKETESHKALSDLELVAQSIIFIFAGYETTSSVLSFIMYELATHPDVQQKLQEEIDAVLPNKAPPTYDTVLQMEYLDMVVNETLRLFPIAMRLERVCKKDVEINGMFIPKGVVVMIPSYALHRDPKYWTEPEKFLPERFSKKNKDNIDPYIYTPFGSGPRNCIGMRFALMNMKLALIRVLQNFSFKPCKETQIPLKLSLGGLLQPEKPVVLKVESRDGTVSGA
The mark [5] stands for this setting: Homo sapiens, Chondrocyte, 240 h.
[6] abbreviates: Mus musculus, C3H 10T1/2, 144 h.

As usually defined, the EC50 is the concentration at which the effect is half-maximal. A word on the microsomal CLint: it is a measure of how fast metabolising enzymes remove a compound, apart from limits set by blood flow.

The structures appear in SMILES notation. Like-named read-outs stand apart in the source and are kept apart here.

`Cc1cc([C@H]2[C@H]3O[C@H]([C@@H]4C[C@@H]43)[C@H]2C(=O)Nc2ccc(Cl)c(Cl)c2)ccn1` (single isomer, unassigned) [Example 23a]: the EC50 in the data set on NHACs (Homo sapiens) was determined as 6.1 µM; in data set [1], 0.78 µM. Further, the Emax was 99% in the data set with NHACs (Homo sapiens), 29% in data set [1], 100% in data set [2] (setting [5]) and 28% with C3H10T1/2 cell line (setting [6]). Also, the values for the IC50 (in data set [2] (setting [5]); in the data set on C3H10T1/2 cell line (setting [6])) were 30 µM and above 20 µM, respectively.
Turning to `Cc1cc([C@@H]2[C@@H]3O[C@@H]([C@@H](O)[C@H]3O)[C@H]2C(=O)Nc2ccc(Cl)c(Cl)c2)ccn1` (single isomer, unassigned) [Example 157], the results for the EC50 (in the data set with NHACs (Homo sapiens); in data set [1]) were 29 µM and 2.1 µM, respectively. For the same compound, the Emax amounted to 57% with NHACs (Homo sapiens), 59% in data set [1], 84% in data set [2] (setting [5]) and 15% with C3H10T1/2 cell line (setting [6]). Also, the values for the IC50 (in data set [2] (setting [5]); with C3H10T1/2 cell line (setting [6])) were 32 µM and above 20 µM, respectively.
`O=C(Nc1ccc(Cl)c(Cl)c1)[C@@H]1[C@@H]2O[C@@H]([C@H]3C[C@H]32)[C@@H]1c1cncnc1` [Example 27]: in the data set on NHACs, the “(A) % Efficacy” value stood at 120% and the EC50 turned out to be 13 µM. In data set [2], the “(C) % Efficacy” value is given as 71% and the IC50 was found to be 34 µM. For the same compound, in the data set with C3H10T1/2 cell line, the “(D) % Efficacy” value was determined as 48% and the IC50 is above 20 µM.
For the compound `O=C(Nc1ccc(Cl)c(Cl)c1)[C@H]1[C@@H](c2ccncc2)[C@H]2O[C@@H]1C[C@@H]2O`, the microsomal CLint in data set [3] and in data set [4] was 7 µL/min/mg each time. Moreover, the IC50 at CYP3A4 was above 25 µM.
`O=C(Nc1cnc(Cl)c(Cl)c1)[C@@H]1[C@@H](c2ccnc(F)c2)[C@H]2O[C@@H]1C[C@@H]2O` (single isomer, unassigned) [Example 90a]: the EC50 is above 50 µM in the data set on NHACs (Homo sapiens) and 2.3 µM in data set [1]. Also, the Emax stood at 101% in the data set with NHACs (Homo sapiens), 65% in data set [1], 98% in data set [2] (setting [5]) and 48% in the data set with C3H10T1/2 cell line (setting [6]). Also, the IC50 in data set [2] (setting [5]) was above 50 µM; with C3H10T1/2 cell line (setting [6]), above 20 µM.
Consider `Cc1cc([C@H]2[C@H]3O[C@H](C[C@@H]3O)[C@@H]2C(=O)Nc2ccc(Cl)c(Cl)c2)ccn1` (single isomer, unassigned) [Example 77a], for which the EC50 in the data set with NHACs (Homo sapiens) amounted to 26 µM; in data set [1], 0.69 µM. For the same compound, the Emax with NHACs (Homo sapiens) amounted to 182%; in data set [1] it was 120%; in data set [2] (setting [5]) it was 114%; in the data set with C3H10T1/2 cell line (setting [6]), 45%. The figures for the IC50 (in data set [2] (setting [5]); with C3H10T1/2 cell line (setting [6])) were 3.5 µM and above 20 µM, respectively.
On to `Cc1cc([C@H]2[C@H]3O[C@H](C[C@H]3N3CCOCC3)[C@@H]2C(=O)Nc2ccc(Cl)c(Cl)c2)ccn1` [Example 177, (1R,2R,3S,4R,5R)—N-(3,4-dichlorophenyl)-3-(2-methylpyridin-4-yl)-5-morpholino-7-oxabicyclo[2.2.1]heptane-2-carboxamide], for which the EC50 in the data set on NHACs (Homo sapiens) came to 22 µM; in data set [1], 1.5 µM. Moreover, the Emax with NHACs (Homo sapiens) turned out to be 211%; in data set [1], 34%; in data set [2] (setting [5]), 33%; in the data set with C3H10T1/2 cell line (setting [6]), 103%. Further, the IC50 is above 50 µM in data set [2] (setting [5]) and 1.5 µM in the data set with C3H10T1/2 cell line (setting [6]).
With `Cc1cc([C@H]2[C@H]3O[C@H](C[C@@H]3O)[C@H]2C(=O)Nc2cccc(C(F)(F)F)c2)ccn1` [Example 8, (1R,2S,3S,4R,5S)-5-hydroxy-3-(2-methylpyridin-4-yl)-N-[3-(trifluromethyl)phenyl]-7-oxabicyclo[2.2.1]heptane-2-carboxamide], in the data set on NHACs (Homo sapiens), the EC50 was above 50 µM and the Emax worked out at 50%. Further, in data set [2] (setting [5]), the Emax was 62% and the IC50 is above 31 µM. In addition, in the data set on C3H10T1/2 cell line (setting [6]), the Emax was determined as 16% and the IC50 is above 20 µM.
Take `Cc1cc([C@H]2[C@H]3O[C@H](C[C@@H]3O)[C@H]2C(=O)Nc2ccc(Cl)c(Cl)c2)ccn1` (single isomer, unassigned) [Example 53a]: the concentration for a half-maximal effect (EC50) in the data set on NHACs (Homo sapiens) is above 50 µM; in data set [1] it was 13 µM. Moreover, the Emax turned out to be 12% in the data set with NHACs (Homo sapiens), 44% in data set [1], 83% in data set [2] (setting [5]) and 0% with C3H10T1/2 cell line (setting [6]). The IC50 is 31 µM in data set [2] (setting [5]) and above 20 µM in the data set on C3H10T1/2 cell line (setting [6]).
As to `O=C(Nc1ccc(Cl)c(Cl)c1)[C@H]1[C@@H](c2ccncc2)[C@H]2O[C@@H]1C[C@@H]2O` (single isomer, unassigned) [Example 47a], the values for the half-maximal effective concentration (EC50) (in the data set on NHACs (Homo sapiens); in data set [1]) were above 50 µM and 2.1 µM, respectively. Also, the Emax in the data set with NHACs (Homo sapiens) stood at 68%; in data set [1] it was 82%; in data set [2] (setting [5]), 88%; in the data set on C3H10T1/2 cell line (setting [6]), 23%. For the same compound, the IC50 in data set [2] (setting [5]) is 33 µM; with C3H10T1/2 cell line (setting [6]) it was above 20 µM.
Regarding `Cc1cc([C@H]2[C@H]3O[C@H]([C@H](O)[C@@H]3O)[C@@H]2C(=O)Nc2ccc(Cl)c(Cl)c2)ccn1` (single isomer, unassigned) [Example 156], the EC50 in the data set with NHACs (Homo sapiens) was determined as 18 µM; in data set [1], 0.95 µM. Moreover, the Emax with NHACs (Homo sapiens) turned out to be 28%; in data set [1], 99%; in data set [2] (setting [5]) it was 103%; in the data set on C3H10T1/2 cell line (setting [6]), 42%. For the same compound, the IC50 in data set [2] (setting [5]) was 15 µM; in the data set on C3H10T1/2 cell line (setting [6]), above 20 µM.
Turning to `O=C(Nc1ccc(Cl)c(Cl)c1)[C@H]1[C@@H](c2ccnc(F)c2)[C@H]2O[C@@H]1C[C@@H]2O` (single isomer, unassigned) [Example 52a], the EC50 is above 50 µM in the data set on NHACs (Homo sapiens) and 0.49 µM in data set [1]. Moreover, the Emax in the data set with NHACs (Homo sapiens) was found to be 96%; in data set [1], 80%; in data set [2] (setting [5]), 71%; with C3H10T1/2 cell line (setting [6]), 36%. Further, the IC50 is 17 µM in data set [2] (setting [5]) and above 20 µM with C3H10T1/2 cell line (setting [6]).
As for `O=C(Nc1ccc(Cl)c(Cl)c1)[C@@H]1[C@@H](c2ccnc(F)c2)[C@H]2O[C@@H]1C[C@@H]2O` (single isomer, unassigned) [Example 142a], the EC50 is 22 µM in the data set on NHACs (Homo sapiens) and 1.2 µM in data set [1]. The Emax came out at 68% in the data set with NHACs (Homo sapiens), 83% in data set [1], 93% in data set [2] (setting [5]) and 81% in the data set with C3H10T1/2 cell line (setting [6]). Besides, the IC50 in data set [2] (setting [5]) stood at 33 µM; in the data set with C3H10T1/2 cell line (setting [6]) it was 6.6 µM.
For the compound `O=C(Nc1cccc(C(F)(F)F)c1)[C@H]1[C@@H](c2ccncc2)[C@H]2O[C@@H]1C[C@@H]2O` (single isomer, unassigned) [Example 11a], the EC50 with NHACs (Homo sapiens) turned out to be 0.27 µM; in data set [1], 2.9 µM. The Emax in the data set on NHACs (Homo sapiens) was 98%; in data set [1], 91%; in data set [2] (setting [5]), 65%; in the data set with C3H10T1/2 cell line (setting [6]) it was 6%. Moreover, the IC50 in data set [2] (setting [5]) was 48 µM; in the data set on C3H10T1/2 cell line (setting [6]), above 20 µM.
As for `Cc1cc([C@H]2[C@H]3O[C@H](C[C@@H]3O)[C@@H]2C(=O)Nc2cnc(Cl)c(Cl)c2)ccn1` (single isomer, unassigned) [Example 83], the EC50 in the data set on NHACs (Homo sapiens) is above 50 µM; in data set [1], 1.5 µM. Moreover, the Emax is 38% in the data set on NHACs (Homo sapiens), 150% in data set [1], 106% in data set [2] (setting [5]) and 34% in the data set on C3H10T1/2 cell line (setting [6]). The IC50 in data set [2] (setting [5]) is 12 µM; in the data set on C3H10T1/2 cell line (setting [6]), above 20 µM.
